Laboratory results published in paper PMC11188874, “HDAC6 Inhibition Releases HR23B to Activate Proteasomes, Expand the Tumor Immunopeptidome and Amplify T-cell Antimyeloma Activity” (Cancer Research Communications, 2024).
“And” between values parts separate entries of the source, which are not always exact repeats. Equal values may be shown once. Read-outs that look alike come from different tables or passages of the source. Peptide text beside a SMILES is read from it. * marks the point of attachment. Cbz = O=C(OCc1ccccc1)*

Assays:
[1] = test system: proteasome ChT-like activity in RPMI-8226 cells; assay: Cell-based high-throughput screen of proteasome ChT-like activity (LLVY-R110); design: species or system human; settings: 3 µmol/L, 21 hours, then LLVY-R110 18 hours
[2] = test system: proteasome ChT-like activity in MMCLs; assay: Proteasome ChT-like activity in cultured multiple myeloma cells (LLVY-R110); settings: for increase in proteasome activity: RPMI-8226 cells, 1 µmol/L, 72 hours (Fig. 1B, 1D); for proteasome activity (in words): MM cells, 1 uM, 72 h (Fig. S14C, S14D)
[3] = Cell viability, XTT assay; format: cell-based; settings: human, RPMI-8226 cells, XTT (Fig. 1C, 1D), read-out: cell viability maintained
Experimental: Cell viability was determined using the XTT assay ([23]). Briefly, 50,000 cells were added to 96-well plates in a volume of 250 µL in RPMI media that lacked phenol red. Drugs were added at indicated concentrations and plates incubated under standard conditions for 72 hours. XTT sodium salt tetrazolium reagent (Gold Biotechnology, catalog no. X-200) was diluted in PBS (1 mg/mL) containing phenazine methosulfate (PMS, 7.5 µg/mL). Cells were incubated with the XTT+PMS reagent for 3 hours at 37°C and absorbance was measured at 450 nm using a Molecular Devices i3x Spectramax plate reader.

E.G7-Ova cells [4] = assay: B3Z T-cell hybridoma assay, annexin-V/propidium iodide; format: cell-based, mouse; settings: pretreatment 1 µmol/L 72 hours, E:T 2:1 (Fig. 2C)
E.G7-Ova cells [5] = assay: Murine MHC-I immunopeptidome analysis by MS; format: cell-based, mouse; settings: 1 µmol/L, 72 hours
RPMI-8226 cells = assay: Myeloma MHC-I immunopeptidome analysis by MS; format: cell-based, human; settings: 1 µmol/L
27 cancer cell lines [6] = assay: Proteasome activity in a panel of cancer cell lines (LLVY-R110); settings: 1 µmol/L, 72 hours; for Number of Cell Lines: Both Increased: proteasome activity and class I presentation
E.G7-Ova cells [7] = assay: Quantitation of […]–MHC-I complex by flow cytometry; format: cell-based, mouse; settings: for increase in presentation of the class I molecule–SIINFEKL complex: normalized to untreated (Fig. 2A)
27 cancer cell lines [8] = settings: 1 µmol/L, 72 hours
HDAC10 = target: T1, HDAC10 (Homo sapiens, UniProt Q969S8); assay: In vitro biochemical activity assay, HDAC10; settings: for IC50: 10-dose, 3-fold serial dilution, Data 1-3 are triplicates, substrate Ac-spermidine-AMC
T1 construct: purchased Reaction Biology (Malvern, PA)
T1 sequence (Q969S8 1-669): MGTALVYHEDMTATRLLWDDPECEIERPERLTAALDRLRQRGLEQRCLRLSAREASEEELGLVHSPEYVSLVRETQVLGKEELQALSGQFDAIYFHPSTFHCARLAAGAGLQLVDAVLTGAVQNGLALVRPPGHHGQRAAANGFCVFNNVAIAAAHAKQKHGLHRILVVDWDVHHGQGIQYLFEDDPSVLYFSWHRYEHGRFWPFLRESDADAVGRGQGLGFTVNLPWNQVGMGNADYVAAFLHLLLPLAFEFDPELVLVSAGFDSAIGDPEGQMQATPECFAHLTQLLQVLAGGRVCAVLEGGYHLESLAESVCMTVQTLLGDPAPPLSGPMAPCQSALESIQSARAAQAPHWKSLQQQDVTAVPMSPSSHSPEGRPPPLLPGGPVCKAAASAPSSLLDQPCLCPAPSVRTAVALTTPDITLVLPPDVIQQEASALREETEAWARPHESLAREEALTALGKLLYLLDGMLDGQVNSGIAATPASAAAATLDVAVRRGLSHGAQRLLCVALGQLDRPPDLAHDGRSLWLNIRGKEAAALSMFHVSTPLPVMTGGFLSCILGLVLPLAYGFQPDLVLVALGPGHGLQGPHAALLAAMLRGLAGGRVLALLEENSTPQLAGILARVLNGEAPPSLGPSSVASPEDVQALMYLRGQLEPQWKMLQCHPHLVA

purified proteasomes = assay: Activity of proteasomes purified by conventional methods; format: biochemical
MMCLs = assay: pan-HLA-ABC presentation in MMCLs by flow cytometry; format: cell-based, human; settings: pan-HLA ABC antibody
[9] = RPMI-8226 multiple myeloma cells

SMILES: COc1ccc(C[C@H](NC(=O)[C@H](C)NC(=O)CN2CCOCC2)C(=O)N[C@@H](Cc2ccccc2)C(=O)C2(C)CO2)cc1 (stereo in doubt) [ONX-0914]
- Fold-Decrease of proteasome ChT-like activity in the HTS [1]: 4 fold

SMILES: O.c1cnc2c(c1)ccc1cccnc12 [1,10-phenanthroline monohydrate]
- increase in proteasome activity [2]: ≥ 30%
- viability at 16 h, 1 µmol/L [3]: ≥ 75%
- Fold-Increase of proteasome ChT-like activity in the HTS [1]: 1.3 fold

SMILES: COC1=C(OC)C(=O)c2ccccc2C1=O [2,3-Dimethoxy-1,4-naphthoquinone]
- Fold-Increase of proteasome ChT-like activity in the HTS [1]: 1.2 fold

SMILES: O=C(NO)c1cnc(NC2(c3ccccc3)CC2)nc1 [ACY-738]
- number of CD8neg/annexin-V+/propidium iodide+ E.G7-Ova cells after coculture with B3Z cells (E.G7-Ova cells [4]): significantly increased
- peak area of SIINFEKL compared with untreated (E.G7-Ova cells [5]): 1.5 fold
- number of peptides increased more than 20-fold (RPMI-8226 cells; 72 hours): four
- number of peptides with ≥2-fold increase (RPMI-8226 cells; 72 hours, 8,019 peptides detected): 118 peptides
- increase in proteasome activity [2]: ≥ 30%
- Number of Cell Lines: Increased Proteasome Activity (27 cancer cell lines [6]): 19 cell lines
- Number of Cell Lines: Both Increased (27 cancer cell lines [6]): 18 cell lines
- increase in presentation of the class I molecule–SIINFEKL complex (E.G7-Ova cells [7]): over 3 fold
- viability at 16 h, 1 µmol/L [3, 9]: ≥ 75%
- Fold-Increase of proteasome ChT-like activity in the HTS [1]: 1.6 fold
- Number of Cell Lines: Increased Class I Presentation (27 cancer cell lines [8]): 23 cell lines

SMILES: O=C(CCCCCCNC(=O)c1cnc(N(c2ccccc2)c2ccccc2)nc1)NO [ACY-1215]
- number of CD8neg/annexin-V+/propidium iodide+ E.G7-Ova cells after coculture with B3Z cells (E.G7-Ova cells [4]): significantly increased
- IC50 (HDAC10): 368 nM and 333 nM and 356 nM
- increase in proteasome activity [2]: ≥ 30%
- Number of Cell Lines: Increased Proteasome Activity (27 cancer cell lines [6]): 21 cell lines
- Number of Cell Lines: Both Increased (27 cancer cell lines [6]): 18 cell lines
- increase in presentation of the class I molecule–SIINFEKL complex (E.G7-Ova cells [7]): over 3 fold
- viability at 16 h, 1 µmol/L [3, 9]: ≥ 75%
- Number of Cell Lines: Increased Class I Presentation (27 cancer cell lines [8]): 19 cell lines

SMILES: CC(=O)O[C@H]1CC[C@@]2(C)C(=CC[C@@H]3[C@@H]2CC[C@]2(C)C(c4cccnc4)=CC[C@@H]32)C1 [Abiraterone acetate]
- direct effect on the activity of purified proteasomes (purified proteasomes): did not observe a direct effect
- Fold-Increase of proteasome ChT-like activity in the HTS [1]: 1.7 fold

SMILES: COc1ccc(-c2ccc3ncc4c(c3c2)n(-c2ccc(N3CCNCC3)c(C(F)(F)F)c2)c(=O)n4C)cn1 [BGT226]
- Fold-Decrease of proteasome ChT-like activity in the HTS [1]: 25 fold

SMILES: C=C(C)[C@@H]1CC[C@]2(C(=O)O)CC[C@]3(C)[C@H](CC[C@@H]4[C@@]5(C)CC[C@H](O)C(C)(C)[C@@H]5CC[C@]43C)[C@@H]12 [Betulinic acid]
- Fold-Increase of proteasome ChT-like activity in the HTS [1]: 1.3 fold

SMILES: CC(C)C[C@H](NC(=O)[C@@H](NC(=O)c1cccc(-c2ccccc2)n1)[C@@H](C)O)B(O)O [CEP-18770]
- Fold-Decrease of proteasome ChT-like activity in the HTS [1]: 4 fold

SMILES: CNc1ccc2oc(C[C@H]3O[C@@]4(CC[C@H]3C)O[C@H]([C@H](C)C(=O)c3ccc[nH]3)[C@H](C)C[C@H]4C)nc2c1C(=O)O [Calcimycin]
- Fold-Decrease of proteasome ChT-like activity in the HTS [1]: 5 fold

SMILES: CC(C)C[C@H](NC(=O)[C@H](CCc1ccccc1)NC(=O)CN1CCOCC1)C(=O)N[C@@H](Cc1ccccc1)C(=O)N[C@@H](CC(C)C)C(=O)[C@@]1(C)CO1 [Carfilzomib]
- Fold-Decrease of proteasome ChT-like activity in the HTS [1]: 54 fold

SMILES: CN(CCCCCCNc1ccnc2cc(Cl)ccc12)CCCCCCNc1ccnc2cc(Cl)ccc12 [DC-661]
- direct effect on the activity of purified proteasomes (purified proteasomes): did not observe a direct effect
- Fold-Increase of proteasome ChT-like activity in the HTS [1]: 1.6 fold

SMILES: OCCN(CCO)c1nc(N2CCCCC2)c2nc(N(CCO)CCO)nc(N3CCCCC3)c2n1 [Dipyridamole]
- Fold-Increase of proteasome ChT-like activity in the HTS [1]: 2.0 fold

SMILES: COc1cccc2c1C(=O)c1c(O)c3c(c(O)c1C2=O)C[C@@](O)(C(=O)CO)C[C@@H]3O[C@H]1C[C@H](N)[C@@H](O)[C@H](C)O1 [Epirubicin]
- Fold-Decrease of proteasome ChT-like activity in the HTS [1]: 4 fold

SMILES: CCN(CCO)CCCC(C)Nc1ccnc2cc(Cl)ccc12 (centres unmarked) [Hydroxychloroquine]
- Fold-Increase of proteasome ChT-like activity in the HTS [1]: 1.2 fold

SMILES: CC(C)C[C@@H](C=O)NC(=O)[C@H](CC(C)C)NC(=O)[C@H](CC(C)C)NC(=O)OCc1ccccc1 [MG-132] (Cbz-Leu-Leu-Leu-aldehyde)
- Fold-Decrease of proteasome ChT-like activity in the HTS [1]: 16 fold

SMILES: COC[C@H](NC(=O)c1cnc(C)s1)C(=O)N[C@@H](COC)C(=O)N[C@@H](Cc1ccccc1)C(=O)[C@@]1(C)CO1 [ONX-0912]
- Fold-Decrease of proteasome ChT-like activity in the HTS [1]: 4 fold

SMILES: C1=C/COCc2cc(ccc2OCCN2CCCC2)Nc2nccc(n2)-c2cccc(c2)COC/1 [Pacritinib]
- Fold-Decrease of proteasome ChT-like activity in the HTS [1]: 5 fold

SMILES: Cn1cc(CNCC2CCN(c3ncc(C(=O)NO)cn3)CC2)c2ccccc21 [Quisinostat]
- IC50 (HDAC10): 4.89 nM

SMILES: CO[C@H]1C[C@@H]2CC[C@@H](C)[C@@](O)(O2)C(=O)C(=O)N2CCCC[C@H]2C(=O)O[C@H]([C@H](C)C[C@@H]2CC[C@@H](O)[C@H](OC)C2)CC(=O)[C@H](C)/C=C(\C)[C@@H](O)[C@@H](OC)C(=O)[C@H](C)C[C@H](C)/C=C/C=C/C=C/1C [Rapamycin]
- Fold-Increase of proteasome ChT-like activity in the HTS [1]: 1.8 fold

SMILES: Nc1nc2ccc(OC(F)(F)F)cc2s1 [Riluzole]
- direct effect on the activity of purified proteasomes (purified proteasomes): did not observe a direct effect

SMILES: COc1ccc(C2CNC(=O)C2)cc1OC1CCCC1 (centres unmarked) [Rolipram]
- Fold-Increase of proteasome ChT-like activity in the HTS [1]: 1.3 fold

SMILES: COc1ccccc1CN(C)C(=O)Cn1c(CCC(=O)O)nc2c(Cl)cccc2c1=O [SGC-UBD253N]
- SIINFEKL–MHC-I complex presentation (in words) (E.G7-Ova cells [7]): not changed
- pan-MHC-I presentation on MMCLs (MMCLs): did not increase

SMILES: COc1ccccc1CNC(=O)Cn1c(CCC(=O)O)nc2c(Cl)cccc2c1=O [SGC-UBD253]
- SIINFEKL–MHC-I complex presentation (in words) (E.G7-Ova cells [7]): increased
- pan-MHC-I presentation on MMCLs (MMCLs): increased pan-MHC-I presentation in a dose-dependent manner

SMILES: CC[C@@H](C(=O)[C@@H](C)[C@@H](O)[C@H](C)[C@@H]1O[C@@H]([C@@H](CC)C(=O)O)CC[C@@H]1C)[C@H]1O[C@]2(C=C[C@@H](O)[C@]3(CC[C@@](C)([C@H]4CC[C@](O)(CC)[C@H](C)O4)O3)O2)[C@H](C)C[C@@H]1C [Salinomycin]
- direct effect on the activity of purified proteasomes (purified proteasomes): did not observe a direct effect
- Fold-Increase of proteasome ChT-like activity in the HTS [1]: 2.0 fold

SMILES: C=C[C@](C)(O)CC[C@@H]1[C@@]2(C)CCCC(C)(C)[C@@H]2CC[C@@]1(C)O [Sclareol]
- Fold-Increase of proteasome ChT-like activity in the HTS [1]: 1.4 fold

SMILES: CN1CCc2c(c3ccccc3n2Cc2ccc(C(=O)NO)cc2)C1 [Tubastatin-A]
- number of CD8neg/annexin-V+/propidium iodide+ E.G7-Ova cells after coculture with B3Z cells (E.G7-Ova cells [4]): significantly increased
- effect on HDAC10 biochemical activity (HDAC10; at higher concentrations): inhibited
- peak area of SIINFEKL compared with untreated (E.G7-Ova cells [5]): 1.5 fold
- global peak intensity of peptides (RPMI-8226 cells; 72 hours): approximately 2 fold
- increase in proteasome activity [2]: ≥ 30%
- Number of Cell Lines: Increased Proteasome Activity (27 cancer cell lines [6]): 17 cell lines
- Number of Cell Lines: Both Increased (27 cancer cell lines [6]): 16 cell lines
- increase in presentation of the class I molecule–SIINFEKL complex (E.G7-Ova cells [7]): over 3 fold
- viability at 16 h, 1 µmol/L [3, 9]: ≥ 75%
- Number of Cell Lines: Increased Class I Presentation (27 cancer cell lines [8]): 19 cell lines

SMILES: COCCn1c2c([n+](Cc3cnccn3)c1C)C(=O)c1ccccc1C2=O [YM155]
- Fold-Decrease of proteasome ChT-like activity in the HTS [1]: 11 fold

SMILES: CN(C)CCc1c[nH]c2ccc(C[C@H]3COC(=O)N3)cc12 [Zolmitriptan]
- Fold-Decrease of proteasome ChT-like activity in the HTS [1]: 4 fold

SMILES: Cc1[nH]c2ccccc2c1CCNCc1ccc(/C=C/C(=O)NO)cc1 [panobinostat]
- proteasome activity (in words) [2]: did not significantly increase

SMILES: C/C=C1\NC(=O)[C@H]2CSSCC/C=C/[C@H](CC(=O)N[C@H](C(C)C)C(=O)N2)OC(=O)[C@H](C(C)C)NC1=O [romidepsin]
- proteasome activity (in words) [2]: did not significantly increase

SMILES: O=C(CCCCCCC(=O)Nc1ccccc1)NO [vorinostat, suberoylanilide hydroxamic acid]
- proteasome activity (in words) [2]: did not significantly increase
